Experimental data as given in patent US20190247398A1, “FORMULATIONS OF A MACROCYCLIC TRK KINASE INHIBITOR” (Array BioPharma Inc., priority 2017, published 2019).
Where two headings read alike, the source gives them in different places.

Tests used:
Format in all cases: physicochemical
[1] = 1 week stability tests (40° C./75% RH, 80° C., ambient light; XRPD and UPLC)
[2] = Dynamic vapor sorption (DVS)
Method: Approximately, 10 mg of sample was placed into a mesh vapor sorption balance pan and loaded into a DVS-1 dynamic vapor sorption balance by Surface Measurement Systems. The sample was subjected to a ramping profile from 40-90% relative humidity (RH) at 10% increments, maintaining the sample at each step until a stable weight had been achieved (99.5% step completion). After completion of the sorption cycle, the sample was dried using the same procedure to 0% RH and then a second sorption cycle back to 40% RH. The weight change during the sorption/desorption cycles were plotted, allowing for the hygroscopic nature of the sample to be determined. XRPD analysis was then carried out on any solid retained.

[3] = Salt disproportionation studies; details: deionized water, 24 h, ambient temperature
Method: Salt disproportionation studies were carried out as follows: 20 mg of prepared salts were weighed into a vial and 0.5 mL of deionized water was added. The samples were then agitated for 24 h at ambient temperature. The pH of the samples was taken pre- and post-agitation. Any solids recovered were submitted for XRPD analysis to determine any changes to form.

[4] = Hydration screen (acetone/water mixtures of various water activities); details: ambient
Method: Hydration screen was carried out as follows: 10 mg of prepared salts were suspended in several acetone/water mixtures of various water activities (low: aw=0.281, medium: aw=0.776 and high: aw=0.919) and agitated at ambient temperatures for 24 hr. Any recovered solids were submitted for XRPD analysis to determine any changes to form.

[5] = Salt stability studies (40° C./75% RH for 1 week, XRPD)
Method: Recovered salts were placed in an oven at 40° C./75% RH for 1 week, and the resultant materials were analyzed by XRPD to determine any changes to form or crystallinity.

[6] = Thermodynamic solubility; details: for solubility thermodynamic at 24 h: thermodynamic from solid, ambient temperature, read-out: Concentration (thermodynamic solubility)
Method: Thermodynamic solubility studies were carried out as follows: 10 mg of prepared salts were suspended in pH 1, 4.5, 6.8 and un-buffered water (300 μL). The pH of the slurries was measured and adjusted accordingly using either 0.2M HCl solution or 0.2M sodium hydroxide solution. The slurries were agitated for 24 hours at ambient temperature using an incubator shaker.

[7] = Gravimetric vapor sorption (GVS)
Method: Approximately 10-20 mg of sample was placed into a mesh vapor sorption balance pan and loaded into an IGASorp Moisture Sorption Analyzer balance by Hiden Analytical. […] After completion of the sorption cycle, the sample was dried using the same procedure to 0% RH, and finally taken back to the starting point of 40% RH. The weight change during the sorption/desorption cycles were plotted, allowing for the hygroscopic nature of the sample to be determined.

[8] = high water activity aw=0.919, 24 hr
[9] = low water activity aw=0.281, 24 hr
[10] = pH 6.8 potassium phosphate buffer, aqueous buffer, pH 6.8 buffer
[11] = simulated gastric fluid, pH 1 buffer

## C[C@@H]1CCc2ncc(F)cc2[C@H]2CCCN2c2ccn3ncc(c3n2)C(=O)N1.O=S(=O)(O)c1ccccc1 [Compound 1 besylate]
[1]; 40° C./75% RH
  change to form after 1 week stability test (XRPD): a mixture of besylate salt and something else
[1]; 80° C.
  change in purity after 1 week stability test (UPLC): no change to purity
  change to form after 1 week stability test (XRPD): no change to form
[1]; ambient light
  change in purity after 1 week stability test (UPLC): no change to purity
  change to form after 1 week stability test (XRPD): no change to form
[2]; DVS humidity conditions
  hygroscopicity by DVS (in words): low hygroscopicity
[2]; after DVS cycle
  change in crystalline form after exposure to DVS conditions (post-DVS XRPD): no changes in crystalline form
[2]; at 90% RH
  mass uptake (DVS): about 0.7%
[3]
  material recovered after salt disproportionation study (XRPD): poorly crystalline free base
[4]; [8]
  solid recovered from hydration screen (XRPD): poorly crystalline besylate salt
[4]; [9]
  solid recovered from hydration screen (XRPD): poorly crystalline besylate salt
[5]; salt recovered from TBME
  changes to form or crystallinity after stability conditions (XRPD): preferred orientation but no changes to form
[5]; salt recovered from THF
  changes to form or crystallinity after stability conditions (XRPD): an increase to crystallinity but no changes to form
[5]; salt recovered from ethanol
  changes to form or crystallinity after stability conditions (XRPD): a decrease in crystallinity
[6]; aqueous buffer, pH 4.5 buffer
  solubility thermodynamic at 24 h: 12.7 mg/mL
[6]; pH 1
  thermodynamic solubility (in words): highly soluble
[6]; pH 4.5
  solids recovered after thermodynamic solubility study (XRPD): an unknown form
  thermodynamic solubility (in words): moderately soluble
[6]; pH 6.8
  solids recovered after thermodynamic solubility study (XRPD): poorly crystalline free base
  thermodynamic solubility (in words): low solubility
[6]; [10]
  solubility thermodynamic at 24 h: 1.9 mg/mL
[6]; [11]
  solubility thermodynamic at 24 h: 30.8 mg/mL
[6]; un-buffered water
  solubility thermodynamic at 24 h: 17.9 mg/mL
  solids recovered after thermodynamic solubility study (XRPD): poorly crystalline free base
  thermodynamic solubility (in words): moderately soluble

## CS(=O)(=O)O.C[C@@H]1CCc2ncc(F)cc2[C@H]2CCCN2c2ccn3ncc(c3n2)C(=O)N1 [Compound 1 mesylate]
[1]; 40° C./75% RH
  change in purity after 1 week stability test (UPLC): no change to purity
[1]; 80° C.
  change in purity after 1 week stability test (UPLC): no change to purity
[1]; ambient light
  change in purity after 1 week stability test (UPLC): no change to purity
[3]
  material recovered after salt disproportionation study (XRPD): no change to form by XRPD analysis but crystallinity reduced
[4]; [8]
  solid recovered from hydration screen (XRPD): free base
[4]; [9]
  solid recovered from hydration screen (XRPD): a mixture of free base and salt
[4]; medium water activity aw=0.776, 24 hr
  solid recovered from hydration screen (XRPD): mesylate salt
[5]; salt recovered from acetone
  changes to form or crystallinity after stability conditions (XRPD): no changes to crystallinity or form
[5]; salt recovered from isopropanol
  changes to form or crystallinity after stability conditions (XRPD): a slight increase in crystallinity but no changes to form
[5]; salt recovered from methanol
  changes to form or crystallinity after stability conditions (XRPD): a decrease in crystallinity but no changes to form
[7]; GVS humidity conditions
  RH at which the material deliquesced (GVS): 30 % RH
  hygroscopicity by GVS (in words): high hygroscopicity
[7]; after GVS cycle
  change in crystalline form after exposure to GVS conditions (post-GVS XRPD): desolvate and become the mesylate form seen in the salt screen
[7]; at 90% RH
  mass uptake (GVS): about 32%
[6]; aqueous buffer, pH 4.5 buffer
  solubility thermodynamic at 24 h: 9.3 mg/mL
[6]; pH 1
  thermodynamic solubility (in words): moderately soluble
[6]; pH 4.5
  solids recovered after thermodynamic solubility study (XRPD): mesylate salt
  thermodynamic solubility (in words): moderately soluble
[6]; pH 6.8
  solids recovered after thermodynamic solubility study (XRPD): free base
  thermodynamic solubility (in words): low solubility
[6]; [10]
  solubility thermodynamic at 24 h: 1.5 mg/mL
[6]; [11]
  solubility thermodynamic at 24 h: 14.3 mg/mL
[6]; un-buffered water
  solubility thermodynamic at 24 h: 9.6 mg/mL
  solids recovered after thermodynamic solubility study (XRPD): free base
  thermodynamic solubility (in words): moderately soluble
